Series [1] can be described thus: Saturation level of urea, betaine and urea:betaine mixtures in water. It counts as physicochemical. From the text:
The concentrations of pure urea solution in water or PBS ranged from 0.025 to 10.1 M, the latter value corresponding to the saturation level of urea. Finally, the concentrations of pure betaine in water or PBS ranged from 0.025 to 5.4 M, this latter corresponding to the saturation level of betaine. In this Example, anhydrous urea:betaine (U:B) mixtures at different molar ratios were first prepared, then solubilized in distilled water at different concentrations ranging from 1.5 g/L to the saturation level which was 607, 813, 985, 957, 795, 741, and 633 g/L for the U:B ratios 1:0, 3:1, 2:1, 1:1, 1:2, 1:3, and 0:1, respectively.

Series [2] in a line: Solubilization of disperse red 13 by urea:betaine aqueous solutions (absorbance at 525 nm). The conditions noted are these: distilled water, room temperature. Format: physicochemical. The procedure: The desired amounts of betaine and/or urea powders were dissolved in distilled water or phosphate buffer solution (PBS, 67 mM) at pH 7.0 to form a 100 mL solution.
The concentration of urea in the urea:betaine mixtures in water or PBS ranged from 0.025 to 8.3 M.
The solutions of urea and/or betaine in PBS were adjusted to provide a pH of 7.0 using concentrated HCl. The volume of added HCl was taken into account when calculating the final molar concentration of betaine and/or urea.
10 mL of the osmolyte solution was added to a vial containing 5 mg red disperse 13 in excess ([…], Sigma), then magnetically stirred (500 rpm) for 16 hours and filtrated (0.45 μm). The concentration of red disperse 13 in the filtrate is measured at 525 nm (Shimadzu UV-1800, Japan). […]
These liquid mixtures were mixed with an excess of disperse red 13 used as a hydrophobic probe to screen the solubilization properties of the solvents. It can be observed from FIG. 1 that the disperse red 13 absorbance increases exponentially 525 nm approx.) with increasing the deep eutectic concentration in water. […]

The format of series [3] is physicochemical. The source says: To further improve the washing procedure that leads to a high carnosic acid content in the final extract and, concomitantly, a strong antioxidant activity, here we studied the effect of the addition of sodium chloride on the CA hydrosolubility.

As to `NC(N)=O` [urea, Urea], the saturation level is listed as 607 g/L in series [1] (distilled water) and 10.1 M in series [1] (water or PBS). Besides, the “hydrotropic behavior for disperse red 13” value in series [2] is “displays a hydrotropic behavior”.

For `C[N+](C)(C)CC(=O)O` [betaine], the saturation level was 633 g/L in series [1] (distilled water) and 5.4 M in series [1] (water or PBS). In series [2], the “hydrotropic behavior for disperse red 13” value was “too modestly to be qualified as such”.

On to `CC(C)c1cc2c(c(O)c1O)[C@@]1(C(=O)O)CCCC(C)(C)[C@@H]1CC2` [CA, carnosic acid], for which the water solubility result in series [3] is reported as “strongly reduced”.

The values above are taken from patent US20220305401A1, “EUTECTIC EXTRACTION OF SOLIDS” (Givaudan SA, priority 2019, published 2022).
